# Results from patent publication US10646488B2 (Araxes Pharma LLC, priority 2016, dated 2020).
# Target: T1, KRAS G12C 1-169, his-tagged protein, GDP-loaded (Homo sapiens, UniProt P01116, G12C)
# T1 construct: KRAS G12C 1-169, his-tagged protein, GDP-loaded
# Experiment: Covalent binding (% modification) to KRAS G12C by mass spectrometry; note: test concentration or dose not given here
# Conditions: covalent binding to KRAS G12C after a ten minute incubation period
row,Compound,Binding %
1,"C=CC(=O)N1C[C@H](C)N(c2nc(OCCc3ccccn3)nc3c(F)c(-c4c(O)cccc4F)c(Cl)cc23)C[C@H]1C [Compound 65, 1-((2R,5S)-4-(6-chloro-8-fluoro-7-(2-fluoro-6-hydroxyphenyl)-2-(2-(pyridin-2-yl)ethoxy)quinazolin-4-yl)-2,5-dimethyl-piperazin-1-yl) prop-2-en-1-one]",+++ (+++ indicates binding activity greater than 90%)
2,"C=CC(=O)N1CCN(c2nc(OCCN(CC)CC)nc3c(F)c(-c4c(C)ccc5cn[nH]c45)c(Cl)cc23)[C@@H](C)C1 [Compound 28, 1-((3S)-4-(6-chloro-2-(2-(diethylamino)ethoxy)-8-fluoro-7-(6-methyl-1H-indazol-7-yl)quinazolin-4-yl)-3-methyl-piperazin-1-yl) prop-2-en-1-one]",+++ (+++ indicates binding activity greater than 90%)
3,"C=CC(=O)N1C[C@@H](C)N(c2nc(N3CC(N(C)C)C3)nc3c(F)c(-c4c(O)cccc4F)c(Cl)cc23)[C@@H](C)C1 [Compound 21, 1-((3S,5R)-4-(6-chloro-2-(3-(dimethylamino)azetidin-1-yl)-8-fluoro-7-(2-fluoro-6-hydroxyphenyl)quinazolin-4-yl)-3,5-dimethyl-piperazin-1-yl) prop-2-en-1-one]",++ (++ indicates binding activity from 50 to 90%)
4,"C=CC(=O)N1C[C@@H](C)N(c2nc(N3CC(O)C3)nc3c(F)c(-c4c(O)cccc4F)c(Cl)cc23)[C@@H](C)C1 [Compound 66, 1-((3R,5S)-4-(6-chloro-8-fluoro-7-(2-fluoro-6-hydroxyphenyl)-2-(3-hydroxyazetidin-1-yl)quinazolin-4-yl)-3,5-dimethyl-piperazin-1-yl) prop-2-en-1-one]",+++ (+++ indicates binding activity greater than 90%)
5,"C=CC(=O)N1[C@H](C)CN(c2nc(OCCN3CC(F)(F)C3)nc3c(F)c(-c4c(C)ccc5[nH]ncc45)c(Cl)cc23)C[C@@H]1C [Compound 41, 1-((2R,6S)-4-(6-chloro-2-(2-(3,3-difluoroazetidin-1-yl)ethoxy)-8-fluoro-7-(5-methyl-1H-indazol-4-yl)quinazolin-4-yl)-2,6-dimethyl-piperazin-1-yl) prop-2-en-1-one]",++ (++ indicates binding activity from 50 to 90%)
6,"C=CC(=O)N1[C@H](C)CN(c2nc(NC3CCN(C4CC4)CC3)nc3c(F)c(-c4c(O)cccc4F)c(Cl)cc23)C[C@@H]1C [Compound 20, 1-((2R,6S)-4-(6-chloro-2-((1-cyclopropyl-piperidin-4-yl)amino)-8-fluoro-7-(2-fluoro-6-hydroxyphenyl)quinazolin-4-yl)-2,6-dimethyl-piperazin-1-yl) prop-2-en-1-one]",++ (++ indicates binding activity from 50 to 90%)
7,"C=CC(=O)N1[C@H](C)CN(c2nc(N3CC(N(C)C)C3)nc3c(F)c(-c4c(C)ccc5cn[nH]c45)c(Cl)cc23)C[C@@H]1C [Compound 27, 1-((2R,6S)-4-(6-chloro-2-(3-(dimethylamino)azetidin-1-yl)-8-fluoro-7-(6-methyl-1H-indazol-7-yl)quinazolin-4-yl)-2,6-dimethyl-piperazin-1-yl) prop-2-en-1-one]",++ (++ indicates binding activity from 50 to 90%)

# Same assay, conditions: covalent binding to KRAS G12C after a three minute incubation period
row,Compound,Binding %
1,"C=CC(=O)N1C[C@H](C)N(c2nc(N3CC(N(CC)CC)C3)nc3c(F)c(-c4c(C)ccc5cn[nH]c45)c(Cl)cc23)C[C@H]1C [Compound 129, 1-((2R,5S)-4-(6-chloro-2-(3-(diethylamino)azetidin-1-yl)-8-fluoro-7-(6-methyl-1H-indazol-7-yl)quinazolin-4-yl)-2,5-dimethyl-piperazin-1-yl) prop-2-en-1-one]",++ (++ indicates binding activity from 50 to 90%)
2,"C=CC(=O)N1C[C@H](C)N(c2nc(N3CC(N(C)CC)C3)nc3c(F)c(-c4c(C)ccc5cn[nH]c45)c(Cl)cc23)C[C@H]1C [Compound 118, 1-((2R,5S)-4-(6-chloro-2-(3-(ethyl(methyl)amino)azetidin-1-yl)-8-fluoro-7-(6-methyl-1H-indazol-7-yl)quinazolin-4-yl)-2,5-dimethyl-piperazin-1-yl) prop-2-en-1-one]",+ (+ indicates binding activity greater than 0% and up to 50%)
3,"C=CC(=O)N1C[C@H](C)N(c2nc(N3CC4(CCN4C)C3)nc3c(F)c(-c4c(C)ccc5[nH]ncc45)c(Cl)cc23)C[C@H]1C [Compound 170, 1-((2R,5S)-4-(6-chloro-8-fluoro-7-(5-methyl-1H-indazol-4-yl)-2-(1-methyl-1,6-diazaspiro[3.3]heptan-6-yl)quinazolin-4-yl)-2,5-dimethyl-piperazin-1-yl) prop-2-en-1-one]",+ (+ indicates binding activity greater than 0% and up to 50%)
4,"C=CC(=O)N1C[C@H](C)N(c2nc(N3CC4(CCOCC4)C3)nc3c(F)c(-c4c(O)cccc4F)c(Cl)cc23)C[C@H]1C [Compound 159, 1-((2R,5S)-4-(6-chloro-8-fluoro-7-(2-fluoro-6-hydroxyphenyl)-2-(7-oxa-2-azaspiro[3.5]nonan-2-yl)quinazolin-4-yl)-2,5-dimethyl-piperazin-1-yl) prop-2-en-1-one]",++ (++ indicates binding activity from 50 to 90%)
5,"C=CC(=O)N1C[C@H](C)N(c2nc(OCCCN3CCC(F)(F)C3)nc3c(F)c(-c4cc(O)cc5ccccc45)c(Cl)cc23)C[C@H]1C [Compound 221, 1-((2R,5S)-4-(6-chloro-2-(3-(3,3-difluoropyrrolidin-1-yl)propoxy)-8-fluoro-7-(3-hydroxynaphthalen-1-yl)quinazolin-4-yl)-2,5-dimethyl-piperazin-1-yl) prop-2-en-1-one]",+ (+ indicates binding activity greater than 0% and up to 50%)
6,"[2H]C([2H])([2H])N(C1CN(c2nc(N3C[C@@H](C)N(C(=O)C=C)C[C@@H]3C)c3cc(Cl)c(-c4c(O)cccc4F)c(F)c3n2)C1)C([2H])([2H])[2H] [Compound 196, 1-((2R,5S)-4-(2-(3-(bis (trideuteromethyl)amino)azetidin-1-yl)-6-chloro-8-fluoro-7-(2-fluoro-6-hydroxyphenyl)quinazolin-4-yl)-2,5-dimethyl-piperazin-1-yl) prop-2-en-1-one]",+++ (+++ indicates binding activity greater than 90%)
7,"C=CC(=O)N1C[C@H](C)N(c2nc(N3CC(N(C)C4CCC4)C3)nc3c(F)c(-c4c(O)cccc4F)c(Cl)cc23)C[C@H]1C (atropisomer, axis not shown) [Compound 138, 1-((2R,5S)-4-(6-chloro-2-(3-(cyclobutyl (methyl)amino)azetidin-1-yl)-8-fluoro-7-((S)-2-fluoro-6-hydroxyphenyl)quinazolin-4-yl)-2,5-dimethyl-piperazin-1-yl) prop-2-en-1-one]",+++ (+++ indicates binding activity greater than 90%)
8,"C=CC(=O)N1C[C@H](C)N(c2nc(N3CC(N(CC)C4CC4)C3)nc3c(F)c(-c4c(C)ccc5[nH]ncc45)c(Cl)cc23)C[C@H]1C [Compound 125, 1-((2R,5S)-4-(6-chloro-2-(3-(cyclopropyl (ethyl)amino)azetidin-1-yl)-8-fluoro-7-(5-methyl-1H-indazol-4-yl)quinazolin-4-yl)-2,5-dimethyl-piperazin-1-yl) prop-2-en-1-one]",++ (++ indicates binding activity from 50 to 90%)
9,"C=CC(=O)N1C[C@H](C)N(c2nc(N3CC(N(C)CC)C3)nc3c(F)c(-c4c(O)cccc4F)c(Cl)cc23)C[C@H]1C (atropisomer, axis not shown) [Compound 155, 1-((2R,5S)-4-(6-chloro-2-(3-(ethyl(methyl)amino)azetidin-1-yl)-8-fluoro-7-((R)-2-fluoro-6-hydroxyphenyl)quinazolin-4-yl)-2,5-dimethyl-piperazin-1-yl) prop-2-en-1-one]",+ (+ indicates binding activity greater than 0% and up to 50%)
10,"C=CC(=O)N1C[C@H](C)N(c2nc(OCCCN(C)C)nc3c(F)c(-c4c(C)ccc5[nH]ncc45)c(C(F)(F)F)cc23)C[C@H]1C [Compound 215, 1-((2R,5S)-4-(2-(3-(dimethylamino)propoxy)-8-fluoro-7-(5-methyl-1H-indazol-4-yl)-6-(trifluoromethyl)quinazolin-4-yl)-2,5-dimethyl-piperazin-1-yl) prop-2-en-1-one]",+++ (+++ indicates binding activity greater than 90%)
11,"C=CC(=O)N1C[C@H](C)N(c2nc(OCCCN3CCC(F)(F)C3)nc3c(F)c(-c4c(C)ccc5[nH]ncc45)c(Cl)cc23)C[C@H]1C [Compound 231, 1-((2R,5S)-4-(6-chloro-2-(3-(3,3-difluoropyrrolidin-1-yl)propoxy)-8-fluoro-7-(5-methyl-1H-indazol-4-yl)quinazolin-4-yl)-2,5-dimethyl-piperazin-1-yl) prop-2-en-1-one]",++ (++ indicates binding activity from 50 to 90%)
12,"C#CCN(C)C1CN(c2nc(N3C[C@@H](C)N(C(=O)C=C)C[C@@H]3C)c3cc(Cl)c(-c4c(C)ccc5cn[nH]c45)c(F)c3n2)C1 [Compound 148, 1-((2R,5S)-4-(6-chloro-8-fluoro-2-(3-(methyl (prop-2-yn-1-yl)amino)azetidin-1-yl)-7-(6-methyl-1H-indazol-7-yl)quinazolin-4-yl)-2,5-dimethyl-piperazin-1-yl) prop-2-en-1-one]",++ (++ indicates binding activity from 50 to 90%)
13,"C=CC(=O)N1C[C@H](C)N(c2nc(N3CC(N(C)C)C3)nc3c(F)c(-c4c(C)ccc5[nH]ncc45)c(C(F)(F)F)cc23)C[C@H]1C [Compound 189, 1-((2R,5S)-4-(2-(3-(dimethylamino)azetidin-1-yl)-8-fluoro-7-(5-methyl-1H-indazol-4-yl)-6-(trifluoromethyl)quinazolin-4-yl)-2,5-dimethyl-piperazin-1-yl) prop-2-en-1-one]",+++ (+++ indicates binding activity greater than 90%)
14,"C=CC(=O)N1C[C@H](C)N(c2nc(N3CC(N(C)C)C3)nc3c(F)c(-c4c(F)cccc4B4OC(C)(C)C(C)(C)O4)c(Cl)cc23)C[C@H]1C [Compound 185, 1-((2R,5S)-4-(6-chloro-2-(3-(dimethylamino)azetidin-1-yl)-8-fluoro-7-(2-fluoro-6-(4,4,5,5-tetramethyl-1,3,2-dioxaborolan-2-yl)phenyl)quinazolin-4-yl)-2,5-dimethyl-piperazin-1-yl) prop-2-en-1-one]",+ (+ indicates binding activity greater than 0% and up to 50%)
